Source: patent US7344829B2, “Methods for detecting the efficacy of anticancer treatments” (Board of Regents, the University of Texas System, priority 2000, dated 2008)
Marks after values point to notes of the source that are not given here.

Legend:
[1] = system: L3.6pl human pancreatic cancer cells; test: Preliminary gemcitabine dose-response experiment in nude mice with pancreatic tumors; format: in vivo; conditions: gemcitabine 250 mg/kg and 500 mg/kg compared to 125 mg/kg (data not shown)
Procedure: To evaluate the therapeutic effect of gemcitabine in this animal model, a preliminary dose-response experiment was performed. […] All mice were killed on day 35. The volume of tumors and incidence of metastasis were determined.

[2] = system: L3.6pl human pancreatic cancer cells
Source text: Animals and Orthotopic Implantation of Tumor Cells. Male athymic nude mice (NCr-nu) were purchased from the Animal Production Area of the National Cancer Institute-Frederick Cancer Research and Development Center (Frederick, Md.). The mice were housed and maintained in laminar flow cabinets under specific pathogen-free conditions in facilities approved by the American Association for Accreditation of Laboratory Animal Care and in accordance with current regulations and standards of the U. S. Department of Agriculture, U.S. Department of Health and Human Services, and the National Institutes of Health. The mice were used in accordance with institutional guidelines when they were 8 to 12 wk old.
Orthotopic Implantation of Tumor Cells. To produce tumors, L3.6pl cells were harvested from subconfluent cultures by a brief exposure to 0.25% trypsin and 0.02% EDTA. Trypsinization was stopped with medium containing 10% FBS, and the cells were washed once in serum-free medium and resuspended in HBSS. Only suspensions consisting of single cells with greater than 90% viability were used for the injections. Cells were injected into the pancreas as described previously. The mice were killed when moribund (5–6 wk). The size and weight of the primary pancreatic tumors, the incidence of regional (celiac and paraaortal) lymph node metastasis, and the number of liver metastases were recorded. Histopathology confirmed the nature of the disease.
Therapy of Established Human Pancreatic Carcinoma Tumors Growing in the Pancreas of Athymic Nude Mice. Seven days after implantation of tumor cells into the pancreas, 5 mice were killed and the presence of tumor lesions was determined. At this time, the median tumor volume was 18 mm^3. Histological examination confirmed the lesions to be actively growing pancreatic cancer.
Necropsy Procedures and Histological Studies. Mice were euthanized and the body weight was determined. Primary tumors in the pancreas were excised and weighed. […] Visible liver metastases were counted with the aid of a dissecting microscope and processed for H&E staining. All macroscopically enlarged regional (celiac and paraaortal) lymph nodes were harvested, and the presence of metastatic disease was confirmed by histology.

[3] = system: IL-8; test: In vitro expression of IL-8 by L3.6pl cells (ELISA); format: cell-based, human; conditions: 72 h, 1 μM PKI166 or 10 nM gemcitabine, control 1440 pg/ml
Procedure: (§1) In vitro Expression of VEGF and IL-8. L3.6pl cells (2000 cells/38 mm^2 well) were plated into 96-well plates in 200 μl supplemented DMEM containing 5% FBS for 24 h, and then treated with 0.05, 0.5, or 1 μM PKI166. Supplemented DMEM (5% FBS) and human IgG (10 μg/ml) served as controls. Seventy-two hours later, the culture supernatants were collected, and the level of VEGF and IL-8 proteins (corrected for cell number) were determined by Quantikine ELISA kits.

[4] = system: VEGF; test: In vitro expression of VEGF by L3.6pl cells (ELISA); format: cell-based, human; conditions: 72 h, 1 μM PKI166 or 10 nM gemcitabine, control 1400 pg/ml
Procedure: as §1

[5] = system: L3.6pl cells; test: In vitro cytotoxicity assay (MTT); format: cell-based; conditions: Homo sapiens, 144 h, 6 days
Procedure: In Vitro Cytotoxicity Assay. In all assays, 700–1000 tumor cells were seeded into 38-mm^2 wells of flat-bottomed 96-well plates in quadruplicate and allowed to adhere overnight. The cultures were then washed and refed with medium (negative control) or medium containing PKI166 with or without gemcitabine. […] Following a 2–4 h incubation in medium containing 0.42 mg/ml of MTT, the cells were lysed in DMSO. The conversion of MTT to formazan by metabolically viable cells was monitored by an MR-5000 96-well microtiter plate reader at 570 nm (Dynatech, Inc., Chantilly, Va.). Growth inhibition was calculated from the formula: Cytostasis (%)=[1−(A/B)]×100, where A is the absorbance of treated cells and B is the absorbance of the control cells.

[6] = system: L3.6pl human pancreatic cancer cells; test: Immunohistochemical analysis of human pancreatic carcinoma in the pancreas of treated nude mice; format: in vivo; conditions: for PCNA+ tumor cells / TUNEL+ tumor cells: mean ± SD, 10 random 0.159-mm^2 fields at ×100; for CD (CD31, tumor MVD per field): staining with antibodies against CD31
Source text: Immunohistochemical (IHC) Determination of VEGF, IL-8, PCNA, CD31/PECAM-1, and EGF-R. Paraffin-embedded tissues were used for identification of VEGF, IL-8, EGF-R, and proliferating cell nuclear antigen (PCNA). Sections (4–6 μm thick) were mounted on positively-charged Superfrost slides (Fisher Scientific, Co., Houston, Tex.) and dried overnight. Sections were deparaffinized in xylene followed by treatment with a graded series of alcohol (100%, 95%, 80% ethanol/ddH2O [v/v]) and rehydrated in PBS, pH 7.5. Sections analyzed for PCNA were microwaved 5 min for “antigen retrieval” (Shi et al. 1991). All other paraffin-embedded tissues were treated with pepsin (Biomeda) for 15 min at 37° C. and washed with PBS. Frozen tissues used for identification of CD31/PECAM-1, and activated EGF-R were sectioned (8–10 μm), mounted on positively charged Plus slides (Fisher Scientific), and air-dried for 30 min. Frozen sections were fixed in cold acetone (5 min), acetone/chloroform (v/v) (5 min), and acetone (5 min) and washed with PBS. Immunohistochemical procedures were performed as described previously (Rak et al. 1996). Positive reaction was visualized by incubating the slides with stable 3,3′-diaminobenzidine (DAB) for 10–20 min or 3-amino-9-ethylcarbazole (AEC) after CD31 staining. The sections were rinsed with distilled water, counterstained with Gill's hematoxylin for 1 min, and mounted with Universal Mount (Research Genetics). […] Sections analyzed for activated EGF-R were pretreated with goat anti-mouse IgG F(ab)2 fragment (1:10 dilution in PBS) for 4–6 h before incubation with the primary antibody. The positive reaction following staining for activated EGF-R was enhanced with osmium tetraoxide (4% aqueous solution) at a 1:1000 dilution in ddH2O after incubation with DAB.
Immunofluorescence Double Staining for CD31/PECAM-1 (Endothelial Cells) and TUNEL (Apoptotic Cells). Frozen tissues were sectioned (8–10 μm), mounted on positively charged slides, air-dried for 30 min, and fixed in cold acetone for 5 min, acetone+chloroform (1:1) for 5 min, and acetone for 5 min. Samples were washed 3 times with PBS, incubated with protein-blocking solution containing 5% normal horse serum and 1% normal goat serum in PBS for 20 min at room temperature, and incubated with the appropriate dilution (1:400) of rat monoclonal anti-mouse CD31 antibody (human cross-reactive) over 18 h at 4° C. After the samples were rinsed 4 times for 3 min each with PBS, the slides were incubated with the appropriate dilution (1:200) of secondary goat anti-rat conjugated to Texas Red for 1 h at room temperature in the dark. Samples were washed twice with PBS containing 0.1% Brij and washed with PBS for 5 min.
TUNEL was performed using a commercially available apoptosis detection kit with the following modifications: samples were fixed with 4% paraformaldehyde (methanol-free) for 10 min at room temperature, washed twice with PBS for 5 min, and then incubated with 0.2% Triton X-100 for 15 min at room temperature. After two washes of 5 min each with PBS, the samples were incubated with equilibration buffer (from kit) for 10 min at room temperature. The equilibration buffer was drained, and reaction buffer containing equilibration buffer, nucleotide mix, and TdT enzyme was added to the tissue sections and incubated in a humid atmosphere at 37° C. for 1 h in the dark. The reaction was terminated by immersing the samples in 2×SSC for 15 min. Samples were washed 3 times for 5 min to remove unincorporated fluorescein-dUTP. For quantification of […], the samples were incubated with 300 μg/ml of Hoechst stain for 10 min at room temperature. Fluorescent bleaching was minimized by treating slides with an enhancing reagent (Prolong solution). […]

[7] = target: T1, EGF-R (Homo sapiens, UniProt P00533); test: Western blot analysis of EGF-R autophosphorylation in L3.6pl cells; format: cell-based; conditions: concentration of 10 μM (data not shown)
T1 construct: endogenous in cells; host or cells: L3.6pl human pancreatic cancer cells
T1 sequence (P00533 25-1210): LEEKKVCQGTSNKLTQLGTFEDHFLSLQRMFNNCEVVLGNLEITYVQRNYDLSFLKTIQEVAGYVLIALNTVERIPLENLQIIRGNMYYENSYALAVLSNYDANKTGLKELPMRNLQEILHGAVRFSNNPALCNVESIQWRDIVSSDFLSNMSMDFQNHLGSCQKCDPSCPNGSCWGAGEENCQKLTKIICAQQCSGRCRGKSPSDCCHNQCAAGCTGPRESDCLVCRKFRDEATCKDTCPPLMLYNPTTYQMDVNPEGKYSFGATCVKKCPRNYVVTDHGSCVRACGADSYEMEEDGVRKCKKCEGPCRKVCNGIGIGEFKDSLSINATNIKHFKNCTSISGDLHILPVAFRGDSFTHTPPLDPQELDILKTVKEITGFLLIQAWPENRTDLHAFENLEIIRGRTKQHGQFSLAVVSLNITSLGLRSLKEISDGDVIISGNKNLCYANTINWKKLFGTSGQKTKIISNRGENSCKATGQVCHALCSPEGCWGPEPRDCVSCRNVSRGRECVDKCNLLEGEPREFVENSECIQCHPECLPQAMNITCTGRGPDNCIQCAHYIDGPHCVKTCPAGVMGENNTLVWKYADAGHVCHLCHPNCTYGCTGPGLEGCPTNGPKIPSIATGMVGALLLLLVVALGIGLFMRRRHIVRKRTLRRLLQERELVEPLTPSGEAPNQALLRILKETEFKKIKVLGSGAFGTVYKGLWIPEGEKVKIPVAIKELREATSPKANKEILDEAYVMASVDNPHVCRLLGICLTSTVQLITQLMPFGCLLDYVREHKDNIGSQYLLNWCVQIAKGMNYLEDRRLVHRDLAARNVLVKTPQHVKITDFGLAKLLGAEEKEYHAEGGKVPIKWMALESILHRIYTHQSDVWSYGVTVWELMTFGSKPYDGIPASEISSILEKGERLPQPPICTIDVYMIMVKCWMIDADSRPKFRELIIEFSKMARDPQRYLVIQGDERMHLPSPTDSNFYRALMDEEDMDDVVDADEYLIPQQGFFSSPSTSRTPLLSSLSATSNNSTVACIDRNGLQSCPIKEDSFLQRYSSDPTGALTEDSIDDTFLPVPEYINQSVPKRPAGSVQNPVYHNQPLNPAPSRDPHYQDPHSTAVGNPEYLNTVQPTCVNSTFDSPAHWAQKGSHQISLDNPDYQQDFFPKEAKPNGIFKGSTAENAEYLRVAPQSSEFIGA
Procedure: Western Blot Analysis of EGF-R Autophosphorylation following Treatment with PKI166. […] without 40 ng/ml rhEGF for 10 min, washed, and scraped into PBS containing 5 mM EDTA and 1 mM Na Orthovanadate, and centrifuged, and the pellet resuspended in lysis buffer (20 mM Tris-HCl, pH 8.0, 137 mM NaCl, 10% glycerol, 2 mM EDTA, 1 mM phenylmethylsulfonyl fluoride, 20 μM leupeptin, and 0.15 U/ml aprotinin) sonicated, and centrifuged to recover […] protein. Immunoprecipitation was performed using Mab anti-EGF-R (clone EGF-RI) as described previously (Perrotte et al. 1999; Parker et al. 1998). Immunoprecipitates were analyzed on 7.5% NaDodSO4-PAGE and transferred onto 0.45-μm nitrocellulose membranes. The filters were blocked with 3% bovine serum albumin in TDS (20 mM Tris-HCl, pH 7.5, 150 mM NaCl), probed with either polyclonal sheep anti-human EGF-R (1:1000) or monoclonal anti-phosphotyrosine (Mab 4G10) (1:2000) in TTBS (0.1% Tween 20 in TBS), and incubated with horseradish peroxidase-conjugated donkey anti-sheep IgG (1:2000) (Sigma Immunochemicals, St. Louis, Mo.) or sheep anti-mouse IgG (1:2000), respectively, in TTBS. Protein bands were visualized by ECL detection system. For an additional experiment, serum-starved L3.6pl cells were treated with gemcitabine (10 nM) with or without PKI166 (0.05, 0.5 μM) for 1 h, and then incubated with or without rhEGF (40 ng/ml) for 10 min. […]

[8] = mean ± SD absorbance, ratio of tumor cell to normal pancreatic gland expression ×100, day 35

Nc1ccn([C@@H]2O[C@H](CO)[C@@H](O)C2(F)F)c(=O)n1 [gemcitabine]
Effect of increasing the dose on pancreatic tumor growth and metastasis [1]: did not further reduce
Histologically positive regional lymph node metastases, share of animals ([2]; day 35): 90%
Reduction of growth of primary pancreatic neoplasms ([2]; human pancreatic carcinoma in pancreas of nude mice): 45%
IL-8 in culture supernatant [3]: 2000 pg/mL
VEGF in culture supernatant [4]: 1280 pg/mL
IC50 ([5]; gemcitabine alone): 880 nM
IC50 ([5]; in the presence of PKI166 (0.03 μM)): 520 nM
ratio of PCNA-positive over TUNEL-positive cells ([6]; calculated): 1.1
Staining of pancreatic tumors for activated (phosphorylated) EGF-R ([6]; immunohistochemistry of tumors from treated nude mice): stained positive
IL-8 [6, 8]: 299 ± 43
VEGF [6, 8]: 298 ± 54
PCNA+ tumor cells ([6]; day 35): 237±66 positive cells/field
TUNEL+ tumor cells ([6]; day 35): 225±95 positive cells/field
PCNA+ tumor cells ([6]; day 35, listed as Gemcitabine): 237 ± 66 positive cells/field
TUNEL+ tumor cells ([6]; day 35, listed as Gemcitabine): 225 ± 95^e positive cells/field
CD (CD31, tumor MVD per field) ([6]; day 35): 52±18
CD (CD31, tumor MVD per field) ([6]; day 35, listed as Gemcitabine): 52
Effect on autophosphorylation of EGF-R [7]: did not affect
